The source of these data is patent US20090131469A1, “PHARMACEUTICAL AGENT COMPRISING SOLIFENACIN” (ASTELLAS PHARMA INC., priority 2005, published 2009).

Test [1] relates to rat model of pollakiuria associated with neurogenic bladder due to cerebral infarction. Nature of the test: Rat model of pollakiuria due to cerebral infarction (cystometry). The format is in vivo. To be noted: male SD rats with cerebral infarction; intravenous administration; 30 minutes after drug administration. The method, then:
Male SD rats (270 g to 320 g) were used for the test. After the rats were anesthetized with pentobarbital (50 mg/kg), a vesical fistula cannula and a cannula for drug administration were inserted and indwelled in the bladder and the jugular vein, respectively. A cannula was also inserted and indwelled in the common carotid vein for drug administration. Cerebral infarction was prepared according to the method of Longa et al. (Stroke, 1989, vol. 20, p. 84-91) 2 to 3 days after the surgery. Under halothane anesthesia, the cervical part was incised and a nylon thread was inserted from the common carotid artery to the internal carotid artery and the tip of the thread was carried forward to the origin of the middle cerebral artery and indwelled to induce cerebral ischemia. On the next day, neurological symptoms were observed and scored according to the method of Garcia, et al. (Stroke, 1995, Vol. 26, p. […]) and rats having moderate or more severe symptoms (with a score of 13 or less) were selected.
After awakening from anesthesia, the rats were maintained in Bollman cages. The vesical fistula cannula was connected to a syringe pump via a three-way stopcock and physiological saline was continuously infused into the bladder to induce micturition reflex. Another end of the three-way stopcock was connected to a pressure transducer to measure intravesical pressure. After stabilization of micturition reflex, the test drug was administered through the catheter for drug dose inserted in the external carotid vein.
The volume of physiological saline required to induce a single micturition reflex at 30 minutes after drug administration, that is, bladder capacity and the voided volume per micturition were measured. The results are shown as mean±standard error.
The Student's t-test was used for a comparison between the sham surgery group and the cerebral infarction group and the Dunnett's multiple comparison test was used for a comparison between the group receiving drug administration and the group not receiving drug administration in the cerebral infarction group.

The test system of test [2] is patients with neurogenic bladder. The experiment in a line: Clinical study of urinary urgency, pollakiuria and urinary incontinence: patients with neurogenic bladder. It is filed as in vivo, human. Particulars: for improving effect on pollakiuria (in words) / improving effect on urinary incontinence (in words) / improving effect on urinary urgency (in words): solifenacin succinate 5 mg and 10 mg (Groups S5, S10), propiverine hydrochloride 20 mg (Group B), oral once daily for 12 weeks. As for the experimental part: (§1) A clinical study was conducted in patients with urinary urgency, pollakiuria and urinary incontinence under the conditions described below. The causes of urinary urgency, pollakiuria and urinary incontinence were separated into neurogenic bladder (due to cerebral infarction or brain disorder due to brain contusion, peripheral neuropathy, and spinal cord disorder due to cervical or lumbar spondylosis, spondylitis deformans, cervical or lumbar spondylolisthesis, disk herniation, spinal stenosis and the like) and unstable bladder (without accompanying neurological diseases, urinary tract infections and calculi, irradiation history to the lumbar part and tumors in the pelvic organs that can be causal disease of detrussor hyperactivity) and analyses were done.
(§2) Male and female patients aged 20 years or older who presented symptoms of urinary urgency, pollakiuria and urinary incontinence for 6 months or a longer period, the number of micturition per 24 hours was 8 on average or higher and satisfied at least one of the following conditions (1) and (2):
(§3) (1) Having at least one episode of urge urinary incontinence per 24 hours on average (2) Having at least one episode of urinary urgency per 24 hours on average. Patients with stress urinary incontinence, psychogenic pollakiuria and the like were excluded. In addition, patients with complication of urinary tract infection, urinary calculi, interstitial cystitis, bladder tumor and the like were also excluded.
(§4) Group P: Placebo (Sham drug) Group S5: 5 mg of solifenacin succinate (corresponding to 3.8 mg of solifenacin calculated as a free base) Group S10: 10 mg of solifenacin succinate (corresponding to 7.5 mg of solifenacin calculated as a free base) Group B: 20 mg of propiverine hydrochloride
(§5) All the groups received oral administration once daily for 12 weeks.

Test [3] relates to patients with unstable bladder. The experiment in a line: Clinical study of urinary urgency, pollakiuria and urinary incontinence: patients with unstable bladder. It is filed as in vivo, human. The method, then: as §1, §2, §3, §4, §5
The mark [4] stands for this setting: Group S5: 5 mg oral once daily for 12 weeks.
Where [5] appears, read: Group S10: 10 mg oral once daily for 12 weeks.
The mark [6] stands for this setting: Group B: 20 mg oral once daily for 12 weeks.

Counter-ions that a name gives are not always drawn.

Regarding `O=C(O[C@H]1CN2CCC1CC2)N1CCc2ccccc2[C@@H]1c1ccccc1` [solifenacin succinate, (3R)-quinuclidin-3-yl (1S)-1-phenyl-1,2,3,4-tetrahydroisoquinoline-2-carboxylate], in test [1], the “doses that increased the bladder capacity” value is not below 0.03 mg/kg and the “doses that increased the voided volume” value is not below 0.03 mg/kg. In test [2] (setting [4]), the “Difference of change in the number of micturitions from that in Group P” value was −0.56, the “Difference of change in the number of urinary incontinence episodes from that in Group P” value was −1.19, the “Difference of change in the number of urinary urgency episodes from that in Group P” value is on record as −1.03 and the “Mean change in the number of micturitions” value was −2.04. Also, in test [2] (setting [4]), the “Mean change in the number of urinary incontinence episodes” value is reported as −1.80 and the “Mean change in the number of urinary urgency episodes” value is reported as −2.86. For the same molecule, in test [2] (setting [5]), the “Difference of change in the number of micturitions from that in Group P” value is on record as −1.11, the “Difference of change in the number of urinary incontinence episodes from that in Group P” value was −0.79, the “Difference of change in the number of urinary urgency episodes from that in Group P” value is −0.60 and the “Mean change in the number of micturitions” value was −2.59. For the same molecule, in test [2] (setting [5]), the “Mean change in the number of urinary incontinence episodes” value is given as −1.40 and the “Mean change in the number of urinary urgency episodes” value is recorded as −2.43. Besides, in test [2], the “improving effect on pollakiuria (in words)” value is “improving effect on pollakiuria was observed”; the “improving effect on urinary incontinence (in words)” value was “improve all the symptoms of urinary urgency, pollakiuria and urinary incontinence”; the “improving effect on urinary urgency (in words)” value is “improving effect on urinary urgency was observed”. Besides, in test [3] (setting [4]), the “Difference of change in the number of micturitions from that in Group P” value is on record as −1.02, the “Difference of change in the number of urinary incontinence episodes from that in Group P” value is on record as −0.85, the “Difference of change in the number of urinary urgency episodes from that in Group P” value is reported as −1.13 and the “Mean change in the number of micturitions” value is reported as −1.93. Also, in test [3] (setting [4]), the “Mean change in the number of urinary incontinence episodes” value was −1.58 and the “Mean change in the number of urinary urgency episodes” value is −2.38. Besides, in test [3] (setting [5]), the “Difference of change in the number of micturitions from that in Group P” value is −1.26, the “Difference of change in the number of urinary incontinence episodes from that in Group P” value is −0.88, the “Difference of change in the number of urinary urgency episodes from that in Group P” value is −1.56 and the “Mean change in the number of micturitions” value is −2.17. In test [3] (setting [5]), the “Mean change in the number of urinary incontinence episodes” value is reported as −1.61 and the “Mean change in the number of urinary urgency episodes” value was −2.81.
With `CCCOC(C(=O)OC1CCN(C)CC1)(c1ccccc1)c1ccccc1` [propiverine hydrochloride, reference compound], in test [1], the “doses that increased the bladder capacity” value was not below 1 mg/kg and the “doses that increased the voided volume” value was not below 0.3 mg/kg. Besides, in test [2] (setting [6]), the “Difference of change in the number of micturitions from that in Group P” value is “+0.23”, the “Difference of change in the number of urinary incontinence episodes from that in Group P” value was −1.01, the “Difference of change in the number of urinary urgency episodes from that in Group P” value is listed as “+0.18” and the “Mean change in the number of micturitions” value is listed as −1.25. Moreover, in test [2] (setting [6]), the “Mean change in the number of urinary incontinence episodes” value was −1.62 and the “Mean change in the number of urinary urgency episodes” value was −1.65. In test [2], the “improving effect on pollakiuria (in words)” value was “no improving effect on pollakiuria was observed”, the “improving effect on urinary incontinence (in words)” value is “improved urinary incontinence” and the “improving effect on urinary urgency (in words)” value is “improving effect on urinary urgency was not observed”. In test [3] (setting [6]), the “Difference of change in the number of micturitions from that in Group P” value is on record as −0.99, the “Difference of change in the number of urinary incontinence episodes from that in Group P” value is reported as −0.50, the “Difference of change in the number of urinary urgency episodes from that in Group P” value is reported as −1.08 and the “Mean change in the number of micturitions” value is −1.90. In test [3] (setting [6]), the “Mean change in the number of urinary incontinence episodes” value is recorded as −1.23 and the “Mean change in the number of urinary urgency episodes” value is given as −2.33.
